According to patent US20260306492A1 (BRISTOL-MYERS SQUIBB COMPANY, priority 2023, published 2026):
One block for each compound: values may come before it.

Legend:
[1] = Thorough QT (TQT) study in healthy adults; type: in vivo, human; details: single 400 mg dose
Method: Pharmacokinetic analysis was performed on the plasma concentrations of each participant.

[2] = cited from earlier work
Factor XI = target: T1, Factor XI (Homo sapiens, UniProt P03951); experiment: FXI clotting activity (FXI:c), AXIOMATIC-TKR Phase II; type: in vivo; details: enoxaparin 40 mg QD sc
T1 construct: aPTT one-stage clotting with FXI-deficient plasma
T1 sequence (P03951 19-625): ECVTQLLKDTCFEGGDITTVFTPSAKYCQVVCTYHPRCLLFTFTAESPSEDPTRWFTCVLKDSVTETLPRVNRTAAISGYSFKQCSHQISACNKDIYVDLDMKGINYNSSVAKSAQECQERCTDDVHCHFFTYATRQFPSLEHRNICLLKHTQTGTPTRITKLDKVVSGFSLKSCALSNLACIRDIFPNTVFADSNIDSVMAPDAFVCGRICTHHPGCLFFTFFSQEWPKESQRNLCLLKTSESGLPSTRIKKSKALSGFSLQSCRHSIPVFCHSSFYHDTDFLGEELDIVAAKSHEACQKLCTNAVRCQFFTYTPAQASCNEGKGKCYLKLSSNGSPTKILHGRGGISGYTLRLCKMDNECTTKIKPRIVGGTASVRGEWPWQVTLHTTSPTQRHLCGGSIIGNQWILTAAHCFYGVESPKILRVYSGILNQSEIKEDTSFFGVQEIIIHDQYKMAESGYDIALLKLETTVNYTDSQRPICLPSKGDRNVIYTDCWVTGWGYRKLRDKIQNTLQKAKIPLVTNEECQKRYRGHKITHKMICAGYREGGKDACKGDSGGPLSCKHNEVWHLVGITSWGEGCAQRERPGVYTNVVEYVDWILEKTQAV
Method: As used herein, “Factor XI Clotting Activity” is determined utilizing an aPTT-based 1-stage clotting time assay. Serial dilutions of normal pooled plasma are mixed with FXI-depleted plasma and the clotting times are measured according to standard aPTT protocol, to establish a reference range. Subject test plasma is treated in the same way and compared with the reference plasma.
In some embodiments, the Factor XI Clotting Activity is measured as follows: Factor XI (FXI) activity is measured using a modification of the activated partial thromboplastin time (aPTT) using Actin FS (Siemens Healthcare) on the Siemens BCS®XP analyzer. […] The reference standard, at approximately 100%, is diluted by the BCS®XP analyzer in saline to generate pre-selected calibration levels of FXI. The calibration curve is plotted with FXI activity in percent (%) on the x-axis and clotting time in seconds on the y-axis. A log/lin regression curve fit is used. […] APTT reagent (Actin FS) is added and the mixture is incubated. Following incubation, calcium chloride is added to the mixture and the time to clot formation (measured optically) is compared to the time on the calibration curve. Samples are tested at the base dilution (1:10) prepared by the BCS®XP in saline.
(§1) Assessment of the dose-response for the occurrence of any bleeding was a secondary objective.
(§2) PD analyses were performed on the PD analysis set, defined as subjects who had at least one valid blood sample drawn for PD. Descriptive statistics (N, mean, SD, median, range, CV (%) and IQ range) were used to summarize PD response at each nominal sampling time point by treatment group. Changes from baseline were summarized when applicable. PD response outside of limit of quantitation were not to be imputed and were to be noted in the summary statistics.

[3] = tested on: participants undergoing primary unilateral elective TKR surgery; experiment: Total venous thromboembolism (VTE) in TKR patients, AXIOMATIC-TKR; type: in vivo, human; details: enoxaparin 40 mg once daily
[4] = tested on: intrinsic and final common pathways of the coagulation cascade (aPTT); experiment: Activated partial thromboplastin time (aPTT), AXIOMATIC-TKR Phase II; type: in vivo, human; details: enoxaparin 40 mg QD sc
Text: As used herein, the term “activated partial thromboplastin time (aPTT)” refers to a measure of the intrinsic and final common pathways of the coagulation cascade. It represents the time, in seconds, for plasma to clot after addition of phospholipid, an intrinsic pathway activator, and calcium. […] The term ‘partial’ means phospholipid is present but no tissue factor. The normal and reference ranges vary depending on reagent and instrument combinations, particularly with the phospholipid composition.
In some embodiments, aPTT is measured as follows: Plasma samples are incubated with Actin FS aPTT assay reagent containing a standard amount of phospholipid and contact activator (ellagic acid) which activates the intrinsic coagulation pathway. After incubating for 3 minutes, calcium chloride is added to initiate coagulation and formation of a fibrin clot is measured optically. The time to clot formation (measured in seconds) is reported as the Activated Partial Thromboplastin Time (aPTT).
as §1, §2

thrombin generation = experiment: Thrombin Generation Assay (TGA), AXIOMATIC-TKR Phase II; type: in vivo, human; details: enoxaparin 40 mg QD sc
Text: As used herein, “Thrombin Generation Assay (TGA)” is a global coagulation assay that evaluates the thrombogenic capacity of a plasma sample and has been proposed that it may better reflect prothrombotic or hemorrhagic states than conventional clotting assays. In the traditional TGA, coagulation of citrated plasma is initiated through the extrinsic pathway by adding tissue factor, phospholipids, and calcium. For this study, in the in-vitro thrombin generation assay (TGA) using human platelet-rich plasma, and a kaolin slurry was used instead to initiate coagulation through the contact activation pathway. Thrombin generation is continuously monitored through the product released by cleavage of a thrombin-specific fluorogenic substrate. The generated thrombogram is used to determine several relevant parameters, including endogenous thrombin potential, defined as the area under the thrombin concentration vs. time curve. […]
as §2

Compound: COc1c(N2C[C@@H]3CCCN[C@@H]3C2)c(F)cc2c(=O)c(C(=O)O)cn(C3CC3)c12 [moxifloxacin]
- assay sensitivity (positive control) [1]: demonstrated
- participants with treatment-emergent change from baseline of QTcB>60 ms ([1]; one participant): 1.7%

Compound: O=C(NC[C@H]1CN(c2ccc(N3CCOCC3=O)cc2)C(=O)O1)c1ccc(Cl)s1 [rivaroxaban]
- VTE prevention versus enoxaparin 40 mg once daily ([2]; 10 mg once daily, orthopedic surgery, historical Phase 3): superior to enoxaparin 40 mg once daily
- bleeding ([2]; Phase 2 orthopedic surgery studies and with antiplatelets after an ACS): dose-related bleeding

- FXI:c, % change from baseline, mean (Factor XI; Day 1 4 h): −7.24%
- FXI:c, % change from baseline, median (Factor XI; Day 1 4 h): −7.24%
- FXI:c, measured value, mean (Factor XI; Day 1 4 h): 1.06
- FXI:c, measured value, median (Factor XI; Day 1 4 h): 1.07
- FXI:c, % change from baseline, mean (Factor XI; Day 10-14): 36.64%
- FXI:c, % change from baseline, median (Factor XI; Day 10-14): 37.21%
- FXI:c, measured value, mean (Factor XI; Day 10-14): 1.36
- FXI:c, measured value, median (Factor XI; Day 10-14): 1.39
Compound: enoxaparin
- total VTE rate [3]: 21.4%
- aPTT, measured value, median ([4]; Day 1 2 h): 27.5 s
- aPTT, measured value, median ([4]; Day 1 4 h): 27.75 s
- aPTT, measured value, median ([4]; Day 2 Predose): 27.4 s
- aPTT, measured value, median ([4]; Day 4 4 h): 26.1 s
- aPTT, measured value, median ([4]; Day 4 Predose): 25.8 s
- aPTT, measured value, median ([4]; Day 10-14): 25.9 s
- ETP Lag Time, measured value, median (thrombin generation; Day 1 2 h): 7.02 min
- ETP Peak Height, measured value, mean (thrombin generation; Day 1 2 h): 171.15 nmol/L
- ETP Lag Time, measured value, mean (thrombin generation; Day 1 4 h): 8.39 min
- ETP Lag Time, measured value, median (thrombin generation; Day 1 4 h): 6.83 min
- ETP Peak Height, measured value, mean (thrombin generation; Day 1 4 h): 183.54 nmol/L
- ETP Peak Height, measured value, median (thrombin generation; Day 1 4 h): 160.49 nmol/L
- ETP Lag Time, measured value, mean (thrombin generation; Day 2 Predose): 6.98 min
- ETP Lag Time, measured value, median (thrombin generation; Day 2 Predose): 5.7 min
- ETP Peak Height, measured value, mean (thrombin generation; Day 2 Predose): 232.14 nmol/L
- ETP Peak Height, measured value, median (thrombin generation; Day 2 Predose): 214.37 nmol/L
- ETP Lag Time, measured value, mean (thrombin generation; Day 4 4 h): 8.16 min
- ETP Lag Time, measured value, median (thrombin generation; Day 4 4 h): 7.44 min
- ETP Peak Height, measured value, mean (thrombin generation; Day 4 4 h): 210.21 nmol/L
- ETP Peak Height, measured value, median (thrombin generation; Day 4 4 h): 196.02 nmol/L
- ETP Lag Time, measured value, mean (thrombin generation; Day 4 Predose): 7.44 min
- ETP Lag Time, measured value, median (thrombin generation; Day 4 Predose): 5.96 min
- ETP Peak Height, measured value, mean (thrombin generation; Day 4 Predose): 250.47 nmol/L
- ETP Peak Height, measured value, median (thrombin generation; Day 4 Predose): 227.87 nmol/L
- ETP Lag Time, measured value, mean (thrombin generation; Day 10-14): 11.18 min
- ETP Lag Time, measured value, median (thrombin generation; Day 10-14): 8.11 min
- ETP Peak Height, measured value, mean (thrombin generation; Day 10-14): 213.56 nmol/L
- ETP Peak Height, measured value, median (thrombin generation; Day 10-14): 201.82 nmol/L
